Legend:
[1] = test system: Peripheral blood mononuclear cells (PBMCs); assay: PBMC proliferation by tritiated thymidine incorporation, with or without the T-cell mitogen PHA; format: cell-based, piglets; conditions: 72 hours; for unstimulated peripheral blood mononuclear cell proliferation: HMO or HMO mixture 125 μg/mL alone (no PHA), FIG. 2; for PHA-stimulated peripheral blood mononuclear cell proliferation: HMO or HMO mixture 125 μg/mL with 25 μg/mL PHA, compared to cultures containing no HMO, FIG. 1
Protocol: T-cell mediated responses were assessed by proliferative responses to the T-cell mitogen phytohemagglutinin (PHA) (simulates infection). […] Peripheral blood mononuclear cells (PBMCs) were isolated using standard density gradient (Ficoll-Paque PLUS) techniques. Residual red blood cells were lysed with a hypotonic ammonium chloride solution. Cells were washed and resuspended in RPMI (Roswell Park Memorial Institute medium) media containing: 10% fetal bovine serum, 2 mM Glutamine, 1 mM sodium pyruvate, 20 mM HEPES (4-(2-hydroxyethyl)-1-piperazineethanesulfonic acid), 50 μg/mL gentamicin, 1000 IU/mL penicillin and 100 μg/mL streptomycin, at a concentration of 1×10^6/mL, and then cultured in the presence or absence of the individual HMOs or HMO mixtures at a concentration of 125 μg/mL, alone or in combination with 25 μg/mL PHA. Cells were cultured for 72 hours, and cellular proliferation was determined using standard tritiated thymidine incorporation methodology.

[2] = test system: T regulatory cells (FoxP3+, CD4+, CD25+) in mesenteric lymph nodes; assay: T-regulatory cells in mesenteric lymph nodes of orally supplemented mice, by flow cytometry; format: in vivo; conditions: oral 7.5 mg daily for 5 days versus PBS, day six, FIG. 3
Protocol: Mice were orally supplemented with 7.5 mg of 2′FL in 200 μL of PBS (n=5) or 200 μL of PBS (n=5) daily for 5 days. On day six, mice were sacrificed and lymphocytes from mesenteric lymph nodes were removed and isolated using standard methods. Mesenteric lymph node lymphocytes (MLNLs) were stained with fluorochrome labeled monoclonal antibodies specific for CD4 and CD25 surface markers. Cells were then fixed with a paraformaldehyde solution to maintain surface marker staining integrity. Stained MLNLs were permeabilized with a saponin-based solution to allow for intracellular uptake of monoclonal antibodies and then stained with a fluorochrome labeled monoclonal antibody specific for the transcription factor FoxP3. All cell preparation methods used were based on recommendations of the monoclonal antibody manufacturer. MLNL suspensions were analyzed by flow cytometery. FoxP3^+, CD4^+, and CD25^+ cells are classified T regulatory cells.

[3] = test system: gastrointestinal epithelial cells; conditions: Kuntz et al (2008); cited from earlier work

| Molecule | unstimulated peripheral blood mononuclear cell proliferation [1] | PHA-stimulated peripheral blood mononuclear cell proliferation [1] | other results |
| --- | --- | --- | --- |
| 2′-fucosyllactose [2′FL] | decreased unstimulated peripheral blood mononuclear cell proliferation | – | percentage of T-regulatory cells in mesenteric lymph nodes [2]: generation of T regulatory cells |
| 3-fucosyllactose [3′FL] | decreased unstimulated peripheral blood mononuclear cell proliferation | – | – |
| CC(=O)N[C@H]1[C@H](O[C@H]2[C@@H](O)[C@@H](CO)O[C@@H](O[C@H]3[C@H](O)[C@@H](O)C(O)O[C@@H]3CO)[C@@H]2O)O[C@H](CO)[C@@H](O[C@@H]2O[C@H](CO)[C@H](O)[C@H](O)[C@H]2O)[C@@H]1O (mixture of isomers) [LNnT, Lacto-N-neotetraose] | this was not seen | did not significantly enhance proliferation | – |
| Fucosyllactose [FL] | – | did not significantly enhance proliferation | – |
| sialyllactose [SL] | – | – | differentiation of gastrointestinal epithelial cells [3]: increases differentiation; proliferation of gastrointestinal epithelial cells [3]: decreases proliferation |
